Eleven molecules from US6509344B1, “Indenoisoquinolines as antineoplastic agents” (The United States of America as represented by the …, priority 1998, dated 2003) can be followed below.

One data set has as its target T1, topoisomerase I (Homo sapiens, UniProt P11387).
T1 sequence (P11387 1-765): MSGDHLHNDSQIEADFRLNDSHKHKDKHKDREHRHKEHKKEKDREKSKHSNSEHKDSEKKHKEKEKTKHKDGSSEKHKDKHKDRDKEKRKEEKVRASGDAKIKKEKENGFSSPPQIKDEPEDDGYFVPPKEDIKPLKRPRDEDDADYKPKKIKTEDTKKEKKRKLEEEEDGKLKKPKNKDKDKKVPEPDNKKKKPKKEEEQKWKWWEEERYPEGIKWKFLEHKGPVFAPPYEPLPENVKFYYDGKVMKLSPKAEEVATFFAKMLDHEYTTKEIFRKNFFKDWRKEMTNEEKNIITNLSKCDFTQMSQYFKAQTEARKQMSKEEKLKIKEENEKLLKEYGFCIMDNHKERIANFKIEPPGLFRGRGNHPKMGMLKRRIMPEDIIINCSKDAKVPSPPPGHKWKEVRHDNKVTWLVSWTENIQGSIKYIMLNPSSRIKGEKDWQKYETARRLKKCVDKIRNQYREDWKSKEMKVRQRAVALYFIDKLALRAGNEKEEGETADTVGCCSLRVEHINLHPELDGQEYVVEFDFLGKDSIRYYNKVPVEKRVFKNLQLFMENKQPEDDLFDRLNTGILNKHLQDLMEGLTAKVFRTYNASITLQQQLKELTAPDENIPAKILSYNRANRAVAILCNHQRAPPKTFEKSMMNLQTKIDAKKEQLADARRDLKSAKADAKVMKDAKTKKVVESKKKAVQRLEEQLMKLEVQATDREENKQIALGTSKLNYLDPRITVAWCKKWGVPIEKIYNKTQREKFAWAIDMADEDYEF
The data set can be described thus: Topoisomerase I-mediated DNA cleavage assay (3'-end-labeled 161 bp pBluescript SK(-) fragment). Type of data set: biochemical. The following applies: relative to the activity of 1 μM camptothecin. How it is done: Topoisomerase I-Mediated DNA Cleavage Reactions Using 3′-End-labeled 161 BP Plasmid DNA
The 161 bp fragment from pBluescript SK(−) phagemid DNA (Stratagene, La Jolla, Calif.) was cleaved with the restriction endonuclease Pvu II and Hind III (New England Biolabs, Beverly, Mass.) in supplied NE buffer 2 (10 μL reactions) for 1 h at 37° C., separated by electrophoresis in a 1% agarose gel made in 1×TBE buffer. The 161 bp fragment was eluted from the gel slice (centrilutor by Amicon) and concentrated in a centricon 50 centrifugal concentrator (Amicon, Beverly, Mass.). Approximately 200 ng of the fragment was 3′-end-labeled at the Hind III site by fill-in reaction with [alpha-^32P]-dCTP and 0.5 mM dATP, dGTP, and dTTP, in React 2 buffer (50 mM Tris-HCl, pH 8.0, […], 50 mM NaCl) with 0.5 units of DNA polymerase I (Klenow fragment). Labeling reactions were followed by phenol-chloroform extraction and ethanol precipitation. The resulting 161 bp 3′-endlabeled DNA fragment was resuspended in water. Aliquots (approximately 50,000 dpm/reaction) were incubated with topoisomerase I at 30° C. for 15 min in the presence of the indicated drug. Reactions were terminated by adding 0.5% SDS. After ethanol precipitation, the samples were resuspended in loading buffer (80% formamide, 10 mM sodium hydroxide, 1 mM sodium EDTA, 0.1% xylene cyanol, and 0.1% bromophenol blue, pH 8.0), and separated in a denaturing gel (16% polyacrylamide, 7 M urea) run at 51° C. The gel was dried and visualized by using a Phosphoimager and ImageQuant software (Molecular Dynamics, Sunnyvale, Calif.).

A further data set concerns SN12C. The data set is described as follows: NCI human cancer cell line screen (COMPARE screening), Renal SN12C. The class given is cell-based. Particulars: Homo sapiens; SN12C; concentration causing 50% growth inhibition; read-out: Cytotoxicity (G150 in μM) Renal SN12C. The text has this: (§1) Considering the diversity of cancer in terms of cell type, morphology, growth rate and other cellular characteristics, the U.S. National Cancer Institute (NCI) has developed a “disease-oriented” approach to anticancer activity screening (M. R. Boyd, in “Principle of Practice of Oncology” […]. Rosenberg (Eds.) Vol. 3, PPO Update, No. 10, 1989). This in vitro prescreening system is based on the measurement of anticancer cytotoxicity against human cancer cell line panels consisting of approximately 60 cell lines of major human cancers (including leukemia and slower growing tumor cells such as lung, colon, breast, skin, kidney, etc.) and is referred hereinafter as “COMPARE” screening. An important advantage of the new in vitro screening panels is the opportunity to facilitate identification of compounds that are selectively more cytotoxic to cells of certain types of cancers, thus increasing the ability to select compounds for further study with respect to specific diseases. The indenoisoquinolines were examined for antiproliferative activity against the human cancer cell lines in the National Cancer Institute screen (COMPARE screening), in which the activity of each compound was evaluated with approximately […] different cancer cell lines of diverse tumor origins.

The next data set relates to UACC-62. The data set is described as follows: NCI human cancer cell line screen (COMPARE screening), Melanoma UACC-62. The following applies: Homo sapiens; UACC-62; concentration causing 50% growth inhibition; read-out: Cytotoxicity (G150 in μM) Melanoma UACC-62. Type of data set: cell-based.
Source text: as §1

The subject of another data set is SF-539. The data set is described as follows: NCI human cancer cell line screen (COMPARE screening), CNS SF-539. Type of data set: cell-based. Particulars: Homo sapiens; SF-539; concentration causing 50% growth inhibition; read-out: Cytotoxicity (G150 in μM) CNS SF-539.
Source text: as §1

For the next data set, the system named is DU-145. The data set can be described thus: NCI human cancer cell line screen (COMPARE screening), Prostate DU-145. Type of data set: cell-based. The following applies: Homo sapiens; DU-145; concentration causing 50% growth inhibition; read-out: Cytotoxicity (G150 in μM) Prostate DU-145.
Source text: as §1

Data set [1] relates to approximately 55 different cancer cell lines of diverse tumor origins. The data set can be described thus: NCI screen mean graph midpoint over all cell lines tested. The following applies: for IC50: Homo sapiens, average GI50 for all cell lines tested (approximately 55), values outside test range taken as 10^-8 or 10^-4 molar, read-out: MGM (mean graph midpoint); for cytotoxicity (MGM) relative to lead compound 1: comparison in words. The class given is cell-based, human.
Source text: as §1

The next data set deals with OVCAR-3. The data set is described as follows: NCI human cancer cell line screen (COMPARE screening), Ovarian OVCAR-3. Type of data set: cell-based. Particulars: Homo sapiens; OVCAR-3; concentration causing 50% growth inhibition; read-out: Cytotoxicity (G150 in μM) Ovarian OVCAR-3.
Source text: as §1

The test system of another data set is MDA-MB-435. The data set can be described thus: NCI human cancer cell line screen (COMPARE screening), Breast MDA-MB-435. Particulars: Homo sapiens; MDA-MB-435; concentration causing 50% growth inhibition; read-out: Cytotoxicity (G150 in μM) Breast MDA-MB-435. The class given is cell-based.
Source text: as §1

For another data set, the system named is HOP-62. The data set is described as follows: NCI human cancer cell line screen (COMPARE screening), Lung HOP-62. The class given is cell-based. The following applies: Homo sapiens; HOP-62; concentration causing 50% growth inhibition; read-out: Cytotoxicity (G150 in μM) Lung HOP-62.
Source text: as §1

In another data set the test system is HCT-116. The data set can be described thus: NCI human cancer cell line screen (COMPARE screening), Colon HCT-116. The class given is cell-based. Particulars: Homo sapiens; HCT-116; concentration causing 50% growth inhibition; read-out: Cytotoxicity (G150 in μM) Colon HCT-116.
Source text: as §1

Structures are written as SMILES.

For the molecule `CCn1c2c(c3ccccc3c1=O)C(=O)c1ccccc1-2` [Compound 3, 6-Ethyl-5,6-dihydro-5,11-diketo-11H-indeno[1,2-c]isoquinoline], the “Top 1 Cleavage” value on topoisomerase I was 0.

As for `CCCn1c2c(c3ccccc3c1=O)C(=O)c1ccccc1-2` [Compound 4, 5,6-Dihydro-5,11-diketo-6-propyl-11H-indeno[1,2-c]isoquinoline], the “Top 1 Cleavage” value at topoisomerase I was 0.

Consider `COC(=O)Cn1c2c(c3ccccc3c1=O)C(=O)c1ccccc1-2` [Compound 6, 5,6-Dihydro-5,11-diketo-6-(methoxycarbonylmethyl)-11H-indeno[1,2-c]isoquinoline], for which the IC50 is more than 100 µM in the data set on SN12C; more than 100 µM in the data set with UACC-62; more than 100 µM with SF-539; more than 100 µM with DU-145; 81 µM in data set [1]; more than 100 µM in the data set on OVCAR-3. The IC50 in the data set on MDA-MB-435 is more than 100 µM. Also, the “Top 1 Cleavage” value at topoisomerase I is 0.

Turning to `Cn1c2c(c3ccccc3c1=O)C(=O)c1cc3c(cc1-2)OCO3` [Compound 13a, 5,6-Dihydro-5,11-diketo-6-methyl-8,9-methylenedioxy-11H-indeno[1,2-c]isoquinoline], the IC50 in the data set with SN12C was more than 100 µM; in the data set on HOP-62, 22 µM; in the data set on UACC-62 it was more than 100 µM; in the data set on HCT-116, 54 µM; with DU-145 it was more than 100 µM; in data set [1], 45 µM. In the data set on OVCAR-3, the IC50 was more than 100 µM. Besides, the “Top 1 Cleavage” value on topoisomerase I was “+ (those compounds having between 20% and 50% of the activity of 1 μM camptothecin)”.

With `CCCCn1c2c(c3cc(OC)c(OC)cc3c1=O)C(=O)c1cc3c(cc1-2)OCO3` [Compound 13d, 6-(1-Butyl)-5,6-dihydro-5,11-diketo-2,3-dimethoxy-8,9-methylenedioxy11H-indeno[1,2-c]isoquinoline], the IC50 with HOP-62 was found to be 16 µM; in the data set with UACC-62, 21 µM; with HCT-116 it was 45 µM; in the data set with DU-145 it was 16 µM; in data set [1], 42 µM; in the data set with OVCAR-3, 78 µM. Besides, in the data set on MDA-MB-435, the IC50 is more than 100 µM. The “Top 1 Cleavage” value on topoisomerase I was “+ (those compounds having between 20% and 50% of the activity of 1 μM camptothecin)”.

As for `COc1cc2c3c(n(Cc4ccccc4)c(=O)c2cc1OC)-c1cc2c(cc1C3=O)OCO2` [Compound 13e, 6-Benzyl-5,6-dihydro-5,11-diketo 2,3-dimethoxy-8,9-methylenedioxy-11H-indeno[1,2-c]isoquinoline], the IC50 was 12 µM in the data set with HOP-62; 50 µM with UACC-62; more than 100 µM in the data set on HCT-116; 4 µM with DU-145; 42 µM in [1]; more than 100 µM in the data set with OVCAR-3. In addition, the IC50 with MDA-MB-435 was more than 100 µM. Also, the “Top 1 Cleavage” value on topoisomerase I was “± (those compounds having less than 20% of the activity of 1 μM camptothecin)”. The “cytotoxicity (MGM) relative to lead compound 1” value in data set [1] is recorded as “lower MGM than the lead compound 1”.

As for `COc1cc2c(c(OC)c1OC)C(=O)c1c-2n(C)c(=O)c2ccccc12` [Compound 13j, 5,6-Dihydro-5,11-diketo-6-methyl-8,9,10-trimethoxy-11H-indeno[1,2-c]isoquinoline], the IC50 is more than 100 µM with SN12C; 24 µM in the data set on HOP-62; more than 100 µM in the data set with SF-539; more than 100 µM in the data set with DU-145; 78 µM in [1]; more than 100 µM with OVCAR-3. Moreover, the “Top 1 Cleavage” value at topoisomerase I came to 0.

Take `COc1cc2c3c(n(C)c(=O)c2cc1OC)-c1cc(OC)c(OS(C)(=O)=O)cc1C3=O` [Compound 23, 5,6-Dihydro-5,11-diketo-2,3,8-trimethoxy-6-methyl-9[(methylsulfonyl)oxy]-(11H)indeno[1,2-c]isoquinoline]: on topoisomerase I, the “Top 1 Cleavage” value is listed as “± (those compounds having less than 20% of the activity of 1 μM camptothecin)”.

Regarding `CCN1C(=O)c2cc(OC)c(OC)cc2[C@@H]2[C@H]1c1cc3c(cc1[C@@H]2O)OCO3` [Compound 24, 6-Ethyl-5,6,12α,13α-tetrahydro-11β-hydroxy-2,3-dimethoxy-8,9-(methylenedioxy)-5-oxo-11H-indeno[1,2-c]isoquinoline], the IC50 with SN12C was more than 100 µM; in the data set with HOP-62 it was more than 100 µM; in the data set on HCT-116, more than 100 µM; in the data set with SF-539 it was more than 100 µM; in the data set on DU-145 it was more than 100 µM; in [1], 100 µM. Moreover, the IC50 in the data set with OVCAR-3 and in the data set with MDA-MB-435 was more than 100 µM in each case. Further, the “Top 1 Cleavage” value at topoisomerase I amounted to 0.

Regarding `CCN1Cc2cc(OC)c(OC)cc2[C@@H]2[C@H]1c1cc3c(cc1[C@@H]2O)OCO3` [Compound 25, 6-Ethyl-5,6,12α,13α-tetrahydro-11β-hydroxy-2,3-dimethoxy-8,9-(methylenedioxy)-11H-indeno[1,2-c]isoquinoline], the IC50 in the data set on SN12C turned out to be 26 µM; with HOP-62 it was 30 µM; in the data set with HCT-116, 35 µM; in the data set with SF-539, 50 µM; in the data set with DU-145, 41 µM; in data set [1] it was 31 µM. In addition, the IC50 with OVCAR-3 was found to be 24 µM; in the data set with MDA-MB-435 it was 25 µM. The “Top 1 Cleavage” value at topoisomerase I is recorded as 0.

For the molecule `CC[n+]1cc2cc(OC)c(OC)cc2c2c1-c1cc3c(cc1C2)OCO3` [Compound 27, 6-Ethyl-2,3-dimethoxy-8,9-(methylenedioxy)-11H-indeno[1,2-c]isoquinolinium Chloride], the IC50 was 2.7 µM with SN12C; 22 µM in the data set with HOP-62; 13 µM with HCT-116; 5.6 µM in the data set on SF-539; 58 µM in the data set on DU-145; 13 µM in [1]. Besides, the IC50 in the data set on OVCAR-3 stood at 1.9 µM; in the data set with MDA-MB-435, 14 µM. Also, the “Top 1 Cleavage” value on topoisomerase I is listed as “++ (those compounds having greater than 50% of the activity of 1 μM camptothecin)”. For the same molecule, in data set [1], the “cytotoxicity (MGM) relative to lead compound 1” value is recorded as “lower MGM than the lead compound 1”.
